According to publication PMC7144376, “Antiviral Effects of Novel 2-Benzoxyl-Phenylpyridine Derivatives” (Molecules, 2020):

Tested on: ADV7
Assay: ADV7 progeny virus yield in HeLa cells (TCID50 titration)
Assay type: cell-based, adenovirus type 7
Conditions: 36 h, 120 μM W-9, 160 μM W-13, 160 μM W-15, 160 μM ribavirin
Experimental: Based on their antiviral activities and therapeutic selectivity indices, the effects on virus progeny yields of compounds W9, W13, and W15 were further investigated, using ribavirin as a positive control drug. To this end, confluent monolayers of Hep-2 or HeLa cells in 96-well plates were infected with 100 × median tissue culture infective dose (TCID50) of CVB3 or ADV7, then treated with 120 μM W-9, 160 μM W-13, 160 μM W-15, or 160 μM ribavirin. After 36 h, culture media and cell lysates were collected, following freeze-thaw cycles, and then subjected to virus titration.
Figure 2 The effects of W9, W13, and W15 on progeny virus production. Hep-2 cells infected with 100 TCID50 of CVB3 (a), or HeLa cells infected with 100 TCID50 of ADV7(b), were incubated in the absence (virus control) or presence of 120 μM W-9, 160 μM W-13, 160 μM W-15, or 160 μM ribavirin for 36 h, and the culture media and cell lysates then harvested for virus titration. Viral titers are presented as Log10 TCID50/mL. * p < 0.05; ** p < 0.01, compared with the virus control group.
CVB3 or ADV7 suspensions, serially diluted 10-fold with DMEM containing 2% FBS (DMEM maintenance medium, MM), were inoculated to Hep-2 or HeLa cells in 96-well plates. After 1.5 h incubation at 37 °C in 5% CO2, unbound virus was washed out and the MM was added to the cells. After 2 days, infected cells were monitored for CPEs and virus titers were calculated using the Reed–Muench method.

SMILES	reduction in ADV7 virus progeny titer relative to untreated control
NC(=O)c1ncn([C@@H]2O[C@H](CO)[C@@H](O)[C@H]2O)n1 [Ribavirin, reference compound]	~1.7 log
Cc1ccc(OC(=O)C(C)(C)C)c(-c2ccccn2)c1 [W13]	approximately 2.0 log
CC(=O)Oc1ccc(-c2ccccn2)c(OC(=O)c2ccccc2)c1 [W15]	approximately 2.0 log
O=C(Oc1cc(Cl)ccc1-c1ccccn1)c1ccccc1 [W9]	approximately 2.0 log

Tested on: CVB3
Assay: Viral adsorption/entry analysis
Assay type: cell-based, Coxsackievirus B3
Conditions: Hep-2 cells, CVB3 10^6 TCID50, 2 h adsorption; 120 μM W-9, 160 μM W-13, W-15, ribavirin
Experimental: Figure 3 Analysis of the modes of action of W9, W13, and W15 against CVB3. (a) Analysis of effective stage. The antiviral effects of test compounds against CVB3 were detected by measuring cell viability after 48 h of infection when cells were treated with W9, W13, or W15 before, simultaneously, or after inoculation with CVB3 (100 TCID50). (b) Analysis of the effects on CVB3 adsorption. Mock-, 120 μM W-9-, 160 μM W-13-, 160 μM W-15-, or 160 μM ribavirin-treated CVB3 (10^6 TCID50) was inoculated onto Hep-2 cells and adsorbed for 2 h. Infected cells were then harvested and subjected to virus titration, using the TCID50 method. (c) The effects of test compounds on CVB3 release from Hep-2 cells. Hep-2 cells infected with 100 TCID50 of CVB3 were incubated with test compounds for 12 h, then cells and culture supernatants (intra- and extracellular) analyzed for virus yield, separately or together. Mock, no infection; VC, virus control. Values represent the means ± SDs of three independent experiments. * p < 0.05; ** p < 0.01, compared with the virus control group.
To this end, Hep-2 cells were mock-treated or inoculated with CVB3 (10^6 TCID50) treated with 120 μM W-9, 160 μM W-13, 160 μM W-15, or 160 μM ribavirin, and adsorbed for 2 h. Infected cells were then harvested and subjected to virus titration, using the TCID50 method.
Cells were infected with CVB3 (10^6 TCID50) containing 120 μM W-9, 160 μM W-13, 160 μM W-15, or 160 μM ribavirin, after 2 h adsorption at 37 °C, inocula were discarded, and the cells were washed three times with phosphate buffered saline (PBS), harvested, following three freeze-thaw cycles, and subjected to virus titration. Cells infected with CVB3 in the absence of test compounds were used as untreated virus-infected controls.

SMILES	virus titer during virus attachment (adsorption/entry)
NC(=O)c1ncn([C@@H]2O[C@H](CO)[C@@H](O)[C@H]2O)n1 [Ribavirin, reference compound]	no significant decrease in virus titer
Cc1ccc(OC(=O)C(C)(C)C)c(-c2ccccn2)c1 [W13]	no significant decrease in virus titer
CC(=O)Oc1ccc(-c2ccccn2)c(OC(=O)c2ccccc2)c1 [W15]	no significant decrease in virus titer
O=C(Oc1cc(Cl)ccc1-c1ccccn1)c1ccccc1 [W9]	no significant decrease in virus titer

Tested on: CVB3
Assay: Direct inactivation of virions (viricidal test)
Assay type: cell-based, Coxsackievirus B3
Conditions: 10^4 TCID50 CVB3, 2 h at 37 °C; 120 μM W-9, 160 μM W-13, W-15, ribavirin
Experimental: To determine whether these 2-benzoxyl-phenylpyridine derivatives inactivated virions directly, 10^4 TCID50 of CVB3 suspension was incubated with 120 μM W-9, 160 μM W-13, 160 μM W-15, or 160 μM ribavirin for 2 h at 37 °C. Subsequently, viral titers were measured by inoculating 100-fold dilutions of the mixtures, beyond the effective concentrations of the compounds, into the host cells. TCID50 values were calculated by the Reed–Muench method on day 2 post-inoculation.

SMILES	virus titer after incubating CVB3 suspension with compound (viricidal activity)
NC(=O)c1ncn([C@@H]2O[C@H](CO)[C@@H](O)[C@H]2O)n1 [Ribavirin, reference compound]	No significant difference
Cc1ccc(OC(=O)C(C)(C)C)c(-c2ccccn2)c1 [W13]	No significant difference
CC(=O)Oc1ccc(-c2ccccn2)c(OC(=O)c2ccccc2)c1 [W15]	No significant difference
O=C(Oc1cc(Cl)ccc1-c1ccccn1)c1ccccc1 [W9]	No significant difference

Tested on: CVB3
Assay: Time of (drug) addition experiment
Assay type: cell-based, Coxsackievirus B3
Conditions: compound present −1–10, 0–10 or 2–10 h; yield at 12 h pi; 120 μM W-9, 160 μM W-13, W-15, ribavirin
Experimental: To further elucidate the mechanisms underlying the activities of W9, W13, and W15 against CVB3 propagation in cells, we conducted a time-of-addition experiment. Briefly, 120 μM W-9, or 160 μM W-13, W-15 or ribavirin, were added to Hep-2 cells at different time periods following CVB3 infection and progeny virus yield was determined at 12 h post-infection (pi). […] In contrast, when compounds were added during the 4–10 h stage after viral infection, production of viral progeny increased somewhat, however, compared with the virus control group, the inhibition effect was still clear. Drug treatments during other periods following CVB3 infection led to a gradual increase in viral yields, reflecting a loss of antiviral effects.
Figure 4 Time-of-addition assay. 120 μM W-9, or 160 μM W-13, W-15, or ribavirin, were added to Hep-2 cells for different time periods after CVB3 infection. Progeny virus yield was determined at 12 h post-infection ((−1)–0 h, viral infection period; 0–10 h, period of virus proliferation in cells). Values are presented as means ± SDs. * p < 0.05; ** p < 0.01, compared with the virus control group.
Hep-2 cells were infected with 100 TCID50 of CVB3 and then 120 μM W-9, 160 μM W-13, 160 μM W-15, or 160 μM ribavirin were added for different time periods (−1–0, 0–10, 2–10, 4–10, 6–10, 8–10, or −1–10 h pi, where –1–0 h is the viral infection period and 0–10 h is the period of virus proliferation in the cells). Cells and culture supernatants were harvested at 12 h pi and subjected to three freeze-thaw cycles, after which virus titers were determined by the Reed–Muench method.

SMILES	progeny virus titer in time-of-addition assay
NC(=O)c1ncn([C@@H]2O[C@H](CO)[C@@H](O)[C@H]2O)n1 [Ribavirin, reference compound]	very similar effects
Cc1ccc(OC(=O)C(C)(C)C)c(-c2ccccn2)c1 [W13]	progeny virus titers were reduced
CC(=O)Oc1ccc(-c2ccccn2)c(OC(=O)c2ccccc2)c1 [W15]	progeny virus titers were reduced
O=C(Oc1cc(Cl)ccc1-c1ccccn1)c1ccccc1 [W9]	progeny virus titers were reduced
